Data from PMC7536148, “Interactions of zearalanone, α-zearalanol, β-zearalanol, zearalenone-14-sulfate, and zearalenone-14-glucoside with serum albumin” (Mycotoxin Research, 2020).
Several values for one entry are separate records, joined by “and”; a condition that tells them apart may be missing. Equal values may be shown once. Where a name gives a salt, the structure may show the parent alone. Read-outs that look alike come from different tables or passages of the source. Marks after values point to notes of the source that are not given here.

Columns and labels:
[1] = molecular target: T1, human serum albumin (HSA) (Homo sapiens, UniProt P02768); design: method as in Faisal et al. (2018); conditions: ref Faisal et al. (2018); cited from earlier work
T1 construct: purchased Sigma-Aldrich
T1 sequence (P02768 25-609): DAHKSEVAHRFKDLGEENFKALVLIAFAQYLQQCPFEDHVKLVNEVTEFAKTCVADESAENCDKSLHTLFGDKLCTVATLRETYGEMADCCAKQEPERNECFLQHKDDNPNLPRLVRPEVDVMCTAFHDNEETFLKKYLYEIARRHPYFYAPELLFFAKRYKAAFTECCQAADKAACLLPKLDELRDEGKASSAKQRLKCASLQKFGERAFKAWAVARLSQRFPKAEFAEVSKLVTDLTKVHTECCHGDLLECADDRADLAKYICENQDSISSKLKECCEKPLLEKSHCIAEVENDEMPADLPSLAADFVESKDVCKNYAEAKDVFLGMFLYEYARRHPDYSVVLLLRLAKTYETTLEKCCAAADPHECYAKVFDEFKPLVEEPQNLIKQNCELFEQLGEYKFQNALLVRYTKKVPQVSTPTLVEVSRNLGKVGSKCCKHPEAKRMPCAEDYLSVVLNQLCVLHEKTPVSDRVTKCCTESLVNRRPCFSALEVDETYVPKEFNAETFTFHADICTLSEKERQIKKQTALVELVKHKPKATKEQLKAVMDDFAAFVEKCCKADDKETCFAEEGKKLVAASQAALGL

warfarin-HSA complex [2] = molecular target: T2, warfarin-HSA complex (Homo sapiens, UniProt P02768); design: method as in Poór et al. 2017; Faisal et al. 2018; conditions: allosteric interaction with Sudlow's site I ligand; ref Poór et al. 2017; Faisal et al. 2018; cited from earlier work
T2 construct: purchased Sigma-Aldrich
T2 sequence (P02768 25-609, one chain of several): as the sequence (P02768 25-609) above

[3] = molecular target: T3, bovine serum albumin (BSA) (Bos taurus, UniProt P02769); design: method as in Faisal et al. (2018); conditions: ref Faisal et al. (2018); cited from earlier work
T3 construct: purchased Sigma-Aldrich
T3 sequence (P02769 25-607): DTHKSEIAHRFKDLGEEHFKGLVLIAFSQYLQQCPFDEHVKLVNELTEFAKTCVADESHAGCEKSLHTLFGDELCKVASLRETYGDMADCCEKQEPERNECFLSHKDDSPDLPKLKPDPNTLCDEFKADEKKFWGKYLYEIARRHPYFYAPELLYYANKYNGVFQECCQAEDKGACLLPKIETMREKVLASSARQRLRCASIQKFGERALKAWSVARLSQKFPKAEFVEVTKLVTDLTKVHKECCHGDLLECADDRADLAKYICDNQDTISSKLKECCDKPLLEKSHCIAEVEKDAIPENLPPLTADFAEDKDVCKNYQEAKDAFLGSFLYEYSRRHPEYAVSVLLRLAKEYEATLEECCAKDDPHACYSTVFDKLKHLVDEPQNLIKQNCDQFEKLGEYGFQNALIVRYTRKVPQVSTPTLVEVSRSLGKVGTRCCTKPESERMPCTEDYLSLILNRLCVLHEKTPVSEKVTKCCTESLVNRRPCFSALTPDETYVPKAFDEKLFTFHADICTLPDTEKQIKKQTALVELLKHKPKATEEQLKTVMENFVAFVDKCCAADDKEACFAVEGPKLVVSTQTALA

[4] = design: method as in EFSA 2014; conditions: ZEN equivalents for ZEN and its modified forms jointly; ref EFSA 2014; cited from earlier work
rat serum albumin (RSA) [5] = molecular target: T4, rat serum albumin (RSA) (Rattus norvegicus, UniProt P02770); design: method as in Faisal et al. (2018); conditions: ref Faisal et al. (2018); cited from earlier work
T4 construct: purchased Sigma-Aldrich
T4 sequence (P02770 25-608): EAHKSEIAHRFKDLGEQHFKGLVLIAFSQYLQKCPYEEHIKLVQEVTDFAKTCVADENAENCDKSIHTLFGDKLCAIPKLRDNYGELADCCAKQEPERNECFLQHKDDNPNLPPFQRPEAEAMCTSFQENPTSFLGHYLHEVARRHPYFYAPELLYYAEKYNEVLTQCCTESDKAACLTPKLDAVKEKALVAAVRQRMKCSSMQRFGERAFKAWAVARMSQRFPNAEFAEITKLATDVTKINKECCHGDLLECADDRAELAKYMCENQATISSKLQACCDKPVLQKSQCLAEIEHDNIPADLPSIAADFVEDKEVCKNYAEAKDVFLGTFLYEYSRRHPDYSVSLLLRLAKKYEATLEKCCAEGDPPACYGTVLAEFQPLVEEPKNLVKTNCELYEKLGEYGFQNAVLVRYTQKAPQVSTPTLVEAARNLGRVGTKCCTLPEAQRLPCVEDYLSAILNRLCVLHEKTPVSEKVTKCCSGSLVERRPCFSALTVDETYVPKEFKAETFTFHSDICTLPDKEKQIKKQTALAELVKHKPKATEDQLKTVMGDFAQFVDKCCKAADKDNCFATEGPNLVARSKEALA

[6] = molecular target: T5, porcine serum albumin (PSA) (Sus scrofa, UniProt P08835); design: method as in Faisal et al. (2018); conditions: ref Faisal et al. (2018); cited from earlier work
T5 construct: purchased Sigma-Aldrich
T5 sequence (P08835 25-607): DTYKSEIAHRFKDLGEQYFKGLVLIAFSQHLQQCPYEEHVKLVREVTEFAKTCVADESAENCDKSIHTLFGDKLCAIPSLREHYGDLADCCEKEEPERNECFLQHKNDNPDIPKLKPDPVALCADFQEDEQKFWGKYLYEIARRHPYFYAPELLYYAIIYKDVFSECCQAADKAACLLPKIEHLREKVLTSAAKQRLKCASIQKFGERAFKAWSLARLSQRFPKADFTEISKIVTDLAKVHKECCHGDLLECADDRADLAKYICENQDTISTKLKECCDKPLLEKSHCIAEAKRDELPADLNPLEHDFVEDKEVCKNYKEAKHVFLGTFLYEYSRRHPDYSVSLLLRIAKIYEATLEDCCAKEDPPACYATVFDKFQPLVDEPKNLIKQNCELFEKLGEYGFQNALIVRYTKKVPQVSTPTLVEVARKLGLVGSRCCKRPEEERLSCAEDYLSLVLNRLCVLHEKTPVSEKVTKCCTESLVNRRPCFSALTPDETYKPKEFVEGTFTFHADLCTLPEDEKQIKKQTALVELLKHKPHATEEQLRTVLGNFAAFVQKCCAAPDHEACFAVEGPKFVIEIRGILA

[7] = design: method as in Rai et al. 2019; conditions: ref Rai et al. 2019; cited from earlier work
HSA = molecular target: T6, HSA (Homo sapiens, UniProt P02768); test: High-performance affinity chromatography on HSA-coated column; type: binding; conditions: Chiralpak HSA column, isopropanol / 0.01 mol/L ammonium acetate pH 7.0 (15:85 v/v%), 0.5 mL/min, room temperature
T6 construct: purchased Daicel Chiralpak HSA, 50 × 3.0 mm, 5 μm
T6 sequence (P02768 25-609): as the sequence (P02768 25-609) above
Method: HPAC was performed with a HSA-coated column (Faisal et al. [2018]). The HPLC system (Jasco, Tokyo, Japan) used for the analysis included an autosampler (AS-4050), a binary pump (PU-4180), and a diode-array detector (MD-4017). A 5-μL volume of samples (ZAN: 200 μmol/L; ZEN, α-ZAL, β-ZAL, and Z14S: 100 μmol/L; Z14G: 50 μmol/L) was driven through a pre-column filter (Waters, Milford, MA, USA) linked to an immobilized HSA-coated HPAC column (Chiralpak® HSA, 50 × 3.0 mm, 5 μm; Daicel, Tokyo, Japan). The isocratic elution was performed with 0.5-mL/min flow rate at room temperature. The mobile phase contained isopropanol (HPLC grade; VWR, Debrecen, Hungary) and 0.01 mol/L pH 7.0 ammonium acetate buffer (15:85 v/v%). Mycotoxins were detected at 235 nm, and chromatograms were evaluated with ChromNAV software.

warfarin-HSA complex [8] = molecular target: T2, warfarin-HSA complex; test: Effect of mycotoxins on warfarin-HSA interaction (warfarin fluorescence); type: binding; conditions: warfarin 1 μmol/L, HSA 3.5 μmol/L, mycotoxin 0-15 μmol/L, PBS pH 7.4, λex = 317 nm
Method: (§1) Fluorescence spectroscopic measurements were carried out employing a Hitachi F-4500 fluorescence spectrophotometer (Hitachi, Tokyo, Japan) to investigate the effect of increasing mycotoxin concentrations on the fluorescence signal of albumins as well as on the emission spectrum of warfarin-HSA complex. Our studies were executed in phosphate-buffered saline (PBS, pH 7.4; 8.00 g/L NaCl, 0.20 g/L KCl, 1.81 g/L Na2HPO4 × 2H2O, 0.24 g/L KH2PO4) at room temperature, in the presence of air.
(§2) For spectral correction of fluorescence emission intensities, absorption spectra of mycotoxins were also recorded applying a Jasco-V730 spectrophotometer (Jasco, Tokyo, Japan). The inner-filter effect of mycotoxins was corrected as described previously (Hu and Liu [2015]; Faisal et al. [2018]):1 Icor=Iobs×e^Aex+Aem/2 where Icor and Iobs indicate the corrected and observed fluorescence emission intensities, respectively. Aex and Aem denote the absorbance of mycotoxins at the excitation and emission wavelengths used, respectively.
To test the effects of ZEN metabolites on warfarin-HSA interaction, our previously reported method was applied (Faisal et al. [2018]; Fliszár-Nyúl et al. [2019]). In this experiment, the fluorescence emission signal of warfarin (1 μmol/L; λex = 317 nm, λem = 379 nm) was examined in the presence of HSA (3.5 μmol/L) without and with mycotoxins (0, 1, 2, 3, 4, 5, 6, 8, 10, and 15 μmol/L) in PBS (pH 7.4). Under these conditions, approximately 70% of warfarin is albumin-bound.

rat serum albumin (RSA) [9] = molecular target: T4, rat serum albumin (RSA); test: Fluorescence quenching of rat serum albumin by mycotoxins; type: binding; conditions: for logKSV ± SEM (Stern-Volmer quenching constant): RSA 2 μmol/L, PBS pH 7.4, room temperature, λex = 295 nm, λem = 340 nm
Method: as §1, §2
(§3) To investigate the stability of mycotoxin-albumin complexes, mycotoxin-induced quenching effects on the intrinsic fluorescence of albumins were tested. The emission signal of albumins (2 μmol/L; λex = 295 nm; […]) were measured in the presence of increasing concentrations of mycotoxins (0.0, 1.0, 2.0, 3.0, 4.0, 5.0, 6.0, 7.0, 8.0, 9.0, and 10.0 μmol/L). Stern-Volmer quenching constants (KSV; unit: L/mol) were determined employing the Stern-Volmer equation (Ma et al. [2018]; Faisal et al. [2018]):2 I0/I=1+KSV×Q where Q is the concentration of the mycotoxin (unit: mol/L). I0 and I are the fluorescence emission signal of albumin in the absence and presence of mycotoxins, respectively. Z14S and Z14G exert fluorescence; their excitation and emission spectra, under different environmental conditions, have been reported previously (Faisal et al. [2019], [2020]).
(§4) Binding constants (K; unit: L/mol) of mycotoxin-albumin complexes were determined by nonlinear fitting employing Hyperquad2006 software, as described in details in our previous studies (Sueck et al. [2018]; Faisal et al. [2018]).

[10] = molecular target: T3, bovine serum albumin (BSA); test: Fluorescence quenching of bovine serum albumin by mycotoxins; type: binding; conditions: for logKSV ± SEM (Stern-Volmer quenching constant): BSA 2 μmol/L, PBS pH 7.4, room temperature, λex = 295 nm, λem = 340 nm
Method: as §1, §2, §3, §4

[11] = molecular target: T5, porcine serum albumin (PSA); test: Fluorescence quenching of porcine serum albumin by mycotoxins; type: binding; conditions: for logKSV ± SEM (Stern-Volmer quenching constant): PSA 2 μmol/L, PBS pH 7.4, room temperature, λex = 295 nm, λem = 340 nm
Method: as §1, §2, §3, §4

[12] = molecular target: T1, human serum albumin (HSA); test: Fluorescence quenching of human serum albumin by mycotoxins; type: binding; conditions: for logKSV ± SEM (Stern-Volmer quenching constant): HSA 2 μmol/L, PBS pH 7.4, room temperature, λex = 295 nm, λem = 340 nm; for Kd: logK ± SEM (binding constant of mycotoxin-albumin complex), HSA, quenching data, Hyperquad2006 fitting, 1:1 stoichiometry, PBS pH 7.4
Method: as §1, §2, §3, §4

estrogen receptors = conditions: cited from earlier work; for xenoestrogenic effects compared with ZEN: ref EFSA 2017, Fleck et al. 2017, Frizzell et al. 2011, Filannino et al. 2011
[13] = pigs, cited from earlier work; for intestinal hydrolysis to ZEN after oral administration: ref Binder et al. 2017
CaCo-2 cells = system: CaCo-2 cells; design: method as in Cirlini et al. 2016; conditions: ref Cirlini et al. 2016; cited from earlier work
[14] = system: human, bovine, porcine, and rat serum albumins; test: Fluorescence quenching, statements on all albumins tested together; type: binding; conditions: albumins 2 μmol/L, mycotoxin 0-10 μmol/L, PBS, λex = 295 nm
Method: as §1, §2
To investigate the stability of mycotoxin-albumin complexes, mycotoxin-induced quenching effects on the intrinsic fluorescence of albumins were tested. The emission signal of albumins (2 μmol/L; λex = 295 nm; […]) were measured in the presence of increasing concentrations of mycotoxins (0.0, 1.0, 2.0, 3.0, 4.0, 5.0, 6.0, 7.0, 8.0, 9.0, and 10.0 μmol/L). […]

[15] = design: method as in Sun et al. 2019; conditions: rats, ref Sun et al. 2019; cited from earlier work
[16] = from binding constants of Table 2

| SMILES | effect on binding affinity of warfarin towards HSA (warfarin-HSA complex [2]) | retention time (tR) from HSA-HPAC affinity column (HSA) | effect on fluorescence emission signal of warfarin at 379 nm (warfarin-HSA interaction) (warfarin-HSA complex [8]) | Kd (rat serum albumin (RSA) [9]) | logKSV ± SEM (Stern-Volmer quenching constant) (rat serum albumin (RSA) [9]) | logKSV ± SEM (Stern-Volmer quenching constant) [10] | Kd [11] | logKSV ± SEM (Stern-Volmer quenching constant) [11] | logKSV ± SEM (Stern-Volmer quenching constant) [12] | Kd [12] | Kd [10] | also measured |
| --- | --- | --- | --- | --- | --- | --- | --- | --- | --- | --- | --- | --- |
| C[C@H]1CCCC(=O)CCC/C=C/c2cc(O)cc(O)c2C(=O)O1 [ZEN, Zearalenone] | increase | 12.3 min and 12.267 min |  |  |  |  |  |  |  |  |  | logK ± SEM (binding constant of mycotoxin-albumin complex) [1]: 5.1 L/mol and 5.09 ± 0.01^a L/mol; logKSV ± SEM (Stern-Volmer quenching constant) [1]: 5.09 ± 0.01^a L/mol; logK ± SEM (binding constant of mycotoxin-albumin complex) [3]: 4.78 ± 0.01^a L/mol; logKSV ± SEM (Stern-Volmer quenching constant) [3]: 4.81 ± 0.01^a L/mol; human tolerable daily intake (TDI) [4]: 0.25 μg/kg body weight per day; logK ± SEM (binding constant of mycotoxin-albumin complex) (rat serum albumin (RSA) [5]): 5.42 ± 0.00^a L/mol; logKSV ± SEM (Stern-Volmer quenching constant) (rat serum albumin (RSA) [5]): 5.50 ± 0.01^a L/mol; logK ± SEM (binding constant of mycotoxin-albumin complex) [6]: 4.57 ± 0.01^a L/mol; logKSV ± SEM (Stern-Volmer quenching constant) [6]: 4.56 ± 0.02^a L/mol; IARC carcinogen classification [7]: group 3 carcinogen |
| C[C@H]1CCCC(=O)CCCCCc2cc(O)cc(O)c2C(=O)O1 [ZAN, zearalanone] |  | 8.0 min and 8.017 min | considerably increased the emission signal of warfarin | 7.59 µM | 5.00 ± 0.03 L/mol | 4.41 ± 0.04 L/mol | 107 µM | 3.97 ± 0.06 L/mol | 4.52 ± 0.04 L/mol | 26.3 µM |  | difference in binding affinity, RSA vs. PSA complex (rat serum albumin (RSA) [9]; [16]): 14 fold; Kd ([10]; BSA, quenching data, Hyperquad2006 fitting, 1:1 stoichiometry, PBS pH 7.4, read-out: logK ± SEM (binding constant of mycotoxin-albumin complex) (converted)): 30.9 µM |
| C[C@H]1CCC[C@H](O)CCCCCc2cc(O)cc(O)c2C(=O)O1 [α-ZAL, α-zearalanol] |  | 5.3 min and 5.313 min | considerably increased the emission signal of warfarin | 4.9 µM | 5.21 ± 0.00 L/mol | 4.20 ± 0.05 L/mol | 41.7 µM | 4.30 ± 0.05 L/mol | 4.50 ± 0.02 L/mol | 28.2 µM | 45.7 µM | difference in binding affinity, RSA vs. BSA complex (rat serum albumin (RSA) [9]; [16]): 9 fold; xenoestrogenic effects compared with ZEN (estrogen receptors): considerably higher xenoestrogenic effects than ZEN |
| C[C@H]1CCC[C@@H](O)CCCCCc2cc(O)cc(O)c2C(=O)O1 [β-ZAL, β-zearalanol] |  | 3.1 min and 3.053 min | did not affect the fluorescence at 379 nm | 2.45 µM | 5.43 ± 0.01 L/mol | 3.88 ± 0.06 L/mol | 70.8 µM | 4.13 ± 0.09 L/mol | 4.34 ± 0.04 L/mol | 42.7 µM | 75.9 µM | difference in binding affinity, RSA vs. BSA complex (rat serum albumin (RSA) [9]; [16]): 30 fold |
| C[C@H]1CCCC(=O)CCC/C=C/c2cc(OS(=O)(=O)O)cc(O)c2C(=O)O1 [Z14S, Zearalenone-14-sulfate ammonium salt] |  | 23.3 min and 23.293 min | did not affect the fluorescence at 379 nm | 1.17 µM | 5.70 ± 0.02 L/mol | 5.32 ± 0.02 L/mol | 7.59 µM | 5.04 ± 0.02 L/mol | 4.64 ± 0.03 L/mol | 20 µM and 19.5 µM | 3.72 µM | intestinal hydrolysis to ZEN after oral administration [13]: complete intestinal hydrolysis to ZEN; difference in binding affinity, RSA and HSA complex (rat serum albumin (RSA) [9]; [16]): 16 fold; lower estrogenicity vs. ZEN (estrogen receptors; in vitro, ref Drzymala et al. 2015): 100 fold |
| C[C@H]1CCCC(=O)CCC/C=C/c2cc(O[C@@H]3O[C@H](CO)[C@@H](O)[C@H](O)[C@H]3O)cc(O)c2C(=O)O1 [Z14G, Zearalenone-14-O-β-D-glucoside] |  | 1.7 min and 1.650 min | did not affect the fluorescence at 379 nm |  |  |  |  |  |  |  |  | fraction of the orally administered compound absorbed ([13]; oral, ref Catteuw et al. 2019): approximately 61%; intestinal hydrolysis to ZEN after oral administration [13]: complete intestinal hydrolysis to ZEN; absorption in CaCo-2 cell model (CaCo-2 cells): considerably lower compared with ZEN; effect on the emission signals of albumins (quenching) [14]: did not affect the emission signals of albumins; plasma concentrations after oral administration [15]: low plasma concentrations |
| C[C@H]1CCC[C@H](O)CCC/C=C/c2cc(O)cc(O)c2C(=O)O1 [α-ZEL, α-zearalenol, reference compound] | increase |  |  |  |  |  |  |  |  |  |  | xenoestrogenic effects compared with ZEN (estrogen receptors): considerably higher xenoestrogenic effects than ZEN |
| C[C@H]1CCC[C@@H](O)CCC/C=C/c2cc(O)cc(O)c2C(=O)O1 [β-ZEL, β-zearalenol] | decrease |  |  |  |  |  |  |  |  |  |  |  |
